Series [1] can be described thus: Accumulation of gepants in trigeminal ganglion and cerebral cortex after oral administration (LC/MS of tissue extracts). Format: in vivo. The settings on record: rat, 3 mg/kg oral, 6 hrs after administration, transcardially perfused 10 min. On the procedure: Animals have been transcardially perfused with cold saline for 10 min in order to remove blood contamination and the possible presence of gepants present in plasma. Upon perfusion, tissue specimens form the cerebral cortex (a region beyond the blood brain barrier) and from the trigeminal ganglion (a region before the blood brain barrier) have been collected and extracted with 10 volumes (weight/volume) of a solution of water/acetonitrile (50%/50%). Tissue extracts have been injected in a LC/MS apparatus to reveal the possible presence of the orally-administered gepants.
FIG. 1. Evaluation of the ability of gepants to accumulate within the trigeminal ganglion and cerebral cortex upon oral administration in the rat. […] Animals have been transcardially perfused for 10 min to remove contamination by gepants present in plasma.

In series [2] the test system is nausea induced by cisplatin or cyclophosphamide in the rat. As to the kind of experiment: Gaping events as index of nausea induced by cisplatin or cyclophosphamide. The settings on record: 3 mg/kg oral 6 hrs before cisplatin (6 mg/kg i.p.) or cyclophosphamide (40 mg/kg i.p.), monitored for 4 hrs. Format: in vivo. Here is the method:
It is known that the induction of nausea by a chemical can be evaluated in rats measuring repetitive mouth opening (the so called “gaping”) (Autonomic Neuroscience, 2006, 129, 36-41). We have therefore evaluated the effects of rimegepant, ubrogepant, atogepant and zavegepant (3 mg/kg) on gaping prompted in rats by the anticancer drugs cisplatin (6 mg/kg, i.p.) or cyclophosphamide (40 mg/kg, i.p.). These drugs have been injected 6 hrs after the oral administration of the gepants to allow complete tissue drug absorption and distribution. Gaping was monitored for 4 hrs.
FIG. 2. Effects of gepants on nausea induced by cisplatin or cyclophosphamide in the rat. Rats (10 animals/group) received rimegepant, ubrogepant, atogepant and zavegepant orally (3 mg/kg) 6 hrs before an intraperitoneal injection of cisplatin (6 mg/kg) or cyclophosphamide (40 mg/kg). The number of gaping events were evaluated for 4 hrs as an index of nausea.

For series [3], the system named is vomiting induced by cisplatin or cyclophosphamide in the shrew. As to the kind of experiment: Vomiting events induced by cisplatin or cyclophosphamide. Format: in vivo, shrew (Suncus Murinus). As to conditions: 3 mg/kg oral 6 hrs before cisplatin (6 mg/kg i.p.) or cyclophosphamide (40 mg/kg i.p.), monitored for 4 hrs. Here is the method:
Specifically, we have evaluated the effects of the oral administration of rimegepant, ubrogepant, atogepant and zavegepant (3 mg/kg) on vomiting events induced in the shrew by cisplatin (6 mg/kg i.p.) or cyclophosphamide (40 mg/kg i.p.). To allow complete gepant absorption and tissue distribution, cisplatin and cyclophosphamide have been administered 6 hrs after the gepants and animals monitored for 4 hrs.
FIG. 3. Effects of gepants on vomiting induced by cisplatin or cyclophosphamide in the shrew. Shrews (10 animals/group) have been orally administered with rimegepant, ubrogepant, atogepant and zavegepant (3 mg/kg) 6 hrs before the intraperitoneal injection of cisplatin (6 mg/kg) or cyclophosphamide (40 mg/kg) and the number of vomiting events evaluated for 4 hrs.

`Cc1cc(C[C@@H](NC(=O)N2CCC(c3cc4ccccc4[nH]c3=O)CC2)C(=O)N2CCN(C3CCN(C)CC3)CC2)cc2cn[nH]c12` [zavegepant]: in series [1], the “presence in brain cortex extracts” value is recorded as “detectable” and the “presence in trigeminal ganglion extracts” value is “detectable”. The “number of gaping events (index of nausea) compared to controls” value in series [2] is given as “reduced number of gaping events”. Besides, the “number of vomiting events compared to controls” value in series [3] is “reduced number of vomiting events”.
For the molecule `C[C@@H]1[C@H](c2c(F)ccc(F)c2F)C[C@H](NC(=O)c2cnc3c(c2)C[C@@]2(C3)C(=O)Nc3ncccc32)C(=O)N1CC(F)(F)F` [atogepant], in series [1], the “presence in brain cortex extracts” value is “detectable” and the “presence in trigeminal ganglion extracts” value is “detectable”. In addition, in series [2], the “number of gaping events (index of nausea) compared to controls” value is reported as “reduced number of gaping events”. For the same molecule, the “number of vomiting events compared to controls” value in series [3] is listed as “reduced number of vomiting events”.
Regarding `C[C@@H]1[C@H](c2ccccc2)C[C@H](NC(=O)c2cnc3c(c2)C[C@@]2(C3)C(=O)Nc3ncccc32)C(=O)N1CC(F)(F)F` [ubrogepant], in series [1], the “presence in brain cortex extracts” value is “detectable” and the “presence in trigeminal ganglion extracts” value is “detectable”. The “number of gaping events (index of nausea) compared to controls” value in series [2] was “reduced number of gaping events”. In series [3], the “number of vomiting events compared to controls” value is listed as “reduced number of vomiting events”.
As to `N[C@@H]1c2cccnc2[C@H](OC(=O)N2CCC(n3c(=O)[nH]c4ncccc43)CC2)CC[C@H]1c1cccc(F)c1F` [rimegepant], in series [1], the “presence in brain cortex extracts” value is “detectable” and the “presence in trigeminal ganglion extracts” value is “detectable”. For the same molecule, in series [2], the “number of gaping events (index of nausea) compared to controls” value is listed as “reduced number of gaping events”. Also, the “number of vomiting events compared to controls” value in series [3] is “reduced number of vomiting events”.

The record behind these values is patent publication US20260091031A1, “CGRP RECEPTOR ANTAGONISTS FOR TREATING CHEMOTHERAPY-INDUCED NAUSEA AND VOMITING (CINV)” (priority 2022, published 2026).
